The values below come from patent publication US8067410B2, “Phenolic and catecholic amines and prodrugs thereof” (H. Lundbeck A/S, priority 2008, dated 2011).

The target of experiment [1] is human recombinant D1 receptor (Homo sapiens, UniProt P21728). The experiment can be described thus: D1 cAMP assay. The experiment is classed as cell-based. As for the experimental part:
The ability of the compounds to either stimulate or inhibit the D1 receptor mediated cAMP formation in CHO cells stably expressing the human recombinant D1 receptor was measured as follows. Cells were seeded in 96-well plates at a concentration of 11000 cells/well 3 days prior to the experiment. On the day of the experiment the cells were washed once in preheated G buffer (1 mM MgCl2, 0.9 mM CaCl2, 1 mM IBMX (3-i-butyl-1-methylxanthine) in PBS (phosphate buffered saline)) and the assay was initiated by addition of 100 micro-L of a mixture of 30 nM A68930 and test compound diluted in G buffer (antagonism) or test compound diluted in G buffer (agonism). The cells were incubated for 20 minutes at 37° C. and the reaction was stopped by the addition of 100 micro-L S buffer (0.1 M HCl and 0.1 mM CaCl2) and the plates were placed at 4° C. for 1 h. 68 micro-L N buffer (0.15 M NaOH and 60 mM NaOAc) was added and the plates were shaken for 10 minutes. 60 micro-1 of the reaction were transferred to cAMP FlashPlates (DuPont NEN) containing 40 micro-L 60 mM Sodium acetate pH 6.2 and 100 micro-L IC mix (50 mM Sodium acetate pH 6.2, 0.1% sodium azide, 12 mM CaCl2 1% BSA (bovine serum albumin) and 0.15 micro-Ci/mL ^125I-cAMP) were added. Following an 18 h incubation at 4° C. the plates were washed once and counted in a Wallac TriLux counter.
For orientation: Cyclic AMP is a second messenger, typically raised through Gs and lowered through Gi signalling.

For experiment [2], the target named is T1, human D2 receptor (Homo sapiens, UniProt P14416).
T1 construct: expressed in transfected cells; host or cells: CHO cells
T1 sequence (P14416 whole entry): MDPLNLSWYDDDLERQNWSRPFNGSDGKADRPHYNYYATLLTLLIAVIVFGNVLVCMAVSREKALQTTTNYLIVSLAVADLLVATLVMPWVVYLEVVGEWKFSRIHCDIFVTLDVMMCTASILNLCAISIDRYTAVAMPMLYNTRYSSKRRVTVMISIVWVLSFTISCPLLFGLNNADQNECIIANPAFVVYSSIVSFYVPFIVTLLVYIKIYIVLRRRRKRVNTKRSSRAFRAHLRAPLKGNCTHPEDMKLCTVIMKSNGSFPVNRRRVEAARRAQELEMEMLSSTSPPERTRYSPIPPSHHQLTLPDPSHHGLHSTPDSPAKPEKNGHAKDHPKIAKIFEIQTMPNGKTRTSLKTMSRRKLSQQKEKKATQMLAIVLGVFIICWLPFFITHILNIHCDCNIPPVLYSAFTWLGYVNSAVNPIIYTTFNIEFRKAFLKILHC
The experiment can be described thus: D2 cAMP assay. Type of experiment: cell-based. As for the experimental part: The ability of the compounds to either stimulate or inhibit the D2 receptor mediated inhibition of cAMP formation in CHO cells transfected with the human D2 receptor was measure as follows. Cells were seeded in 96 well plates at a concentration of 8000 cells/well 3 days prior to the experiment. On the day of the experiment the cells were washed once in preheated G buffer (1 mM MgCl2, 0.9 mM CaCl2, 1 mM IBMX in PBS) and the assay was initiated by addition of 100 micro-1 of a mixture of 1 micro-M quinpirole, 10 microM forskolin and test compound in G buffer (antagonism) or 10 micro-M forskolin and test compound in G buffer (agonism). The cells were incubated 20 minutes at 37° C. and the reaction was stopped by the addition of 100 micro-1 S buffer (0.1 M HCl and 0.1 mM CaCl2) and the plates were placed at 4° C. for 1 h. 68 micro-L N buffer (0.15 M NaOH and 60 mM Sodium acetate) were added and the plates were shaken for 10 minutes. 60 micro-L of the reaction were transferred to cAMP FlashPlates (DuPont NEN) containing 40 micro-L 60 mM NaOAc pH 6.2 and 100 micro-L IC mix (50 mM NaOAc pH 6.2, 0.1% Sodium azide, 12 mM CaCl2, 1% BSA and 0.15 micro-Ci/ml ^125I-cAMP) were added. Following an 18 h incubation at 4° C. the plates were washed once and counted in a Wallac TriLux counter.

The mark [3] stands for this setting: cAMP formation in CHO cells stably expressing the human recombinant D1 receptor, read-out: D1 EC 50.
Setting [4] is: inhibition of forskolin-stimulated cAMP formation in CHO cells transfected with the human D2 receptor, read-out: D2 EC 50.

Each structure is given as a SMILES string. Counter-ions that a name gives are not always drawn. Like-named read-outs stand apart in the source and are kept apart here.

Chain of human recombinant D1 receptor (P21728 whole entry): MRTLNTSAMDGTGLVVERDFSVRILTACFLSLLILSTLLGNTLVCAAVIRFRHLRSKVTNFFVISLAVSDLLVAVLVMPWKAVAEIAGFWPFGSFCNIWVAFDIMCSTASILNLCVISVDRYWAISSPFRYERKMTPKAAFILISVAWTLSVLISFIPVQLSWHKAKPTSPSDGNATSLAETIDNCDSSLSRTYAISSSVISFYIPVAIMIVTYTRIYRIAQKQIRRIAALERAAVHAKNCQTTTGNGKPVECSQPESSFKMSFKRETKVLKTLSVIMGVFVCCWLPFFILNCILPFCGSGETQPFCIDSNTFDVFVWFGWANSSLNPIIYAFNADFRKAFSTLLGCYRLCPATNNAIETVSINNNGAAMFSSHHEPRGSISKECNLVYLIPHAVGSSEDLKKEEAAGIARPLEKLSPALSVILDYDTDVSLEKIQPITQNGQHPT

In the case of `CCCN1CCO[C@@H]2Cc3c(ccc4c3OCO4)C[C@H]21` [Example 8c, (6aR,10aR)-7-n-Propyl-6a,7,8,9,10a,11-hexahydro-6H-1,3,10-trioxa-7-aza-cyclo-penta[a]anthracene trifluoroacetate], the values for the EC50 in experiment [1] (setting [3]) and in experiment [2] (setting [4]) were > 10000 nM and 140 nM, respectively.
For `Oc1cccc2c1C[C@@H]1OCCN(CC3CC3)[C@H]1C2` [Example 5d2, (4aS,10aS)-4-cyclo-Propylmethyl-3,4,4a,5,10,10a-hexahydro-2H-naphtho[2,3-b][1,4]oxazin-9-ol hydrochloride], the EC50 in experiment [1] is > 10000 nM; in experiment [2], 1400 nM.
Take `CCCN1C[C@@H](CSC)O[C@@H]2Cc3c(cccc3OC)C[C@H]21` [Example 3c, (2S,4aR,10aR)-9-Methoxy-2-methylsulfanylmethyl-4-n-propyl-3,4,4a,5,10,10a-hexahydro-2H-naphtho[2,3-b][1,4]oxazine]: the EC50 in experiment [1] (setting [3]) was > 10000 nM; in experiment [2] (setting [4]) it was 110 nM.
Turning to `CCCN1CCO[C@@H]2Cc3c(ccc(O)c3O)C[C@H]21` [Example 7, (4aR,10aR)-4-n-Propyl-3,4,4a,5,10,10a-hexahydro-2H-naphtho[2,3-b][1,4]oxazine-8,9-diol trifluoroacetate], the EC50 in experiment [1] turned out to be 200 nM; in experiment [2], 0.15 nM.
Regarding `CCCN1C[C@H](Cn2ccnc2)O[C@@H]2Cc3c(cccc3OC)C[C@H]21` [Example 3e, (2R,4aR,10aR)-2-Imidazol-1-ylmethyl-9-methoxy-4-n-propyl-3,4,4a,5,10,10a-hexahydro-2H-naphtho[2,3-b][1,4]oxazine], the figures for the EC50 in experiment [1] and in experiment [2] were 5800 nM and 30 nM, respectively.
The corresponding values for `CCCN1C[C@H](C)O[C@@H]2Cc3c(O)cccc3C[C@H]21` [Example 5k, (2S,4aR,10aR)-2-Methyl-4-n-propyl-3,4,4a,5,10,10a-hexahydro-2H-naphtho[2,3-b][1,4]oxazin-9-ol trifluoroacetate] are 180 nM and 2 nM.
